Results reported in patent US20130171139A1, “NCAM-VASE AND NEURODEGENERATION” (priority 2010, published 2013).

Tests used:
Format in all cases: cell-based
total NCAM = assay: Total NCAM staining of cultured cortical astrocytes; conditions: PND4 rat cortical astrocytes; 2 days; 1 mM dbcAMP or 50 ng/ml FGF-2
Description: (§1) Expression of NCAM-VASE by astrocytes was also examined. Astrocytes (>90% GFAP-positive cells) were isolated from the cortices of PND4 rat and cultured for 2 days in the absence or presence of 1 mM dbcAMP or 50 ng/ml FGF-2 in DMEM/10% FBS. Treatment with dbcAMP or FGF is known to stimulate a reactive phenotype in astrocytes, such as is found in astrocytes in the glial scars that are characteristic of damaged CNS. The astrocytes were then fixed and costained for GFAP and NCAM-VASE (as shown in FIG. 4) or total NCAM (not shown).

NCAM-VASE = NCAM-VASE staining of cultured cortical astrocytes; conditions: PND4 rat cortical astrocytes; 2 days; 1 mM dbcAMP or 50 ng/ml FGF-2
Description: as §1

[1] = tested on: PND4 rat cerebellar granule neurons; assay: Neurite/axon outgrowth of cerebellar granule neurons cultured on 3T3 monolayers (control, NCAM or NCAM-VASE); conditions: FGF (0.1 ng/m) or forskolin added to culture medium
Description: It has previously been shown that soluble NCAM-Fc stimulates axon outgrowth over control monolayers as effectively as if it were expressed in the monolayer (Meiri et al, J. Neurosci, 1998, 18, 10429-10437). […]
[…] Cerebellar granule neurons were cultured on control, NCAM-expressing (NCAM) or NCAM-VASE-expressing (VASE) monolayers in the absence of presence of soluble NCAM-Fc or NCAM-VASE-Fc (VASE-Fc).

Row | Molecule | total NCAM staining (total NCAM) | NCAM-VASE staining (NCAM-VASE) | axon length ([1]; NCAM-VASE-expressing monolayers) | axon outgrowth ([1]; control monolayers)
1 | CCCC(=O)Nc1ncnc2c1ncn2[C@@H]1O[C@@H]2COP(=O)(O)O[C@H]2[C@H]1OC(=O)CCC [dBcAMP, dbcAMP, reference compound] | large upregulation | large upregulation | – | –
2 | FGF2: fibroblast growth factor, known to stimulate axon outgrowth from cerebellar granule neurons | large upregulation | large upregulation | do not extend longer axons | stimulate axon outgrowth
